Measurements taken from PubChem BioAssay AID330 (DTP/NCI, 2004).
Several values for one entry are separate records, joined by “and”; a condition that tells them apart may be missing. Identical values can stand only once. Toxic doses and inconclusive results are not listed.

Tested on: P388 leukemia ip, CD2F1 mice, survival T/C
Test: NCI In Vivo Anticancer Drug Screen. Data for tumor model P388 Leukemia (intraperitoneal) in CD2F1 (CDF1) mice
Conditions: endpoint: median survival time, higher = longer survival
Summary of the method: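 Mice carrying the transplanted tumor received test compound or vehicle. Survival was recorded in each group, and the value is the treated-group measurement divided by that of the vehicle-treated control group.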

[1] = dose: 12.5 mg/kg/injection, schedule: Q01DX009 (ip), vehicle: saline
[2] = dose: 25.0 mg/kg/injection, schedule: Q01DX009 (ip), vehicle: saline
[3] = dose: 50.0 mg/kg/injection, schedule: Q01DX009 (ip), vehicle: saline
[4] = dose: 50.0 mg/kg/injection, schedule: Q01DX005 (ip), vehicle: Klucel (hydroxypropylcellulose) (HPC)
[5] = dose: 100.0 mg/kg/injection, schedule: Q01DX005 (ip), vehicle: Klucel (hydroxypropylcellulose) (HPC)
[6] = dose: 200.0 mg/kg/injection, schedule: Q01DX005 (ip), vehicle: Klucel (hydroxypropylcellulose) (HPC)
[7] = dose: 60.0 mg/kg/injection, schedule: Q01DX005 (ip), vehicle: Klucel (hydroxypropylcellulose) (HPC)
[8] = dose: 120.0 mg/kg/injection, schedule: Q01DX005 (ip), vehicle: Klucel (hydroxypropylcellulose) (HPC)

## O=C(O)C(O)C(O)C(=O)O.[Bi].[Na+] (stereo not given)
[1]
  T/C: 113 % of control
[2]
  T/C: 115 % of control
[3]
  T/C: 87 % of control and 98 % of control
dose: 100.0 mg/kg/injection, schedule: Q01DX009 (ip), vehicle: saline
  T/C: 93 % of control

## COc1ccc(/C=C/C(CCN(C)C)=N/NC(=S)Nc2ccc(Cl)cc2)cc1
dose: 100.0 mg/kg/injection, schedule: Q01DX001 (ip), vehicle: saline with Tween-80
  T/C: 89 % of control
dose: 200.0 mg/kg/injection, schedule: Q01DX001 (ip), vehicle: saline with Tween-80
  T/C: 90 % of control
dose: 400.0 mg/kg/injection, schedule: Q01DX001 (ip), vehicle: saline with Tween-80
  T/C: 90 % of control

## CC(C)(C)SC(=O)C1CCCCC1
dose: 50.0 mg/kg/injection, schedule: Q01DX009 (ip), vehicle: saline with Tween-80
  T/C: 103 % of control
dose: 100.0 mg/kg/injection, schedule: Q01DX009 (ip), vehicle: saline with Tween-80
  T/C: 104 % of control

## CN(C)c1ccc2c(Nc3ccc(NS(C)(=O)=O)cc3)c3ccc(N(C)C)cc3nc2c1
dose: 25.0 mg/kg/injection, schedule: Q01DX005 (ip), vehicle: Klucel (hydroxypropylcellulose) (HPC)
  T/C: 161 % of control
[4]
  T/C: 153 % of control and 155 % of control
[5]
  T/C: 172 % of control and 212 % of control
[6]
  T/C: 173 % of control and 216 % of control

## Cc1ccc(S(=O)(=O)N2CCN(S(=O)(=O)c3ccc(C)cc3)COC2)cc1
dose: 60.0 mg/kg/injection, schedule: Q01DX005 (ip), vehicle: saline with Tween-80
  T/C: 102 % of control
dose: 120.0 mg/kg/injection, schedule: Q01DX005 (ip), vehicle: saline with Tween-80
  T/C: 97 % of control
dose: 240.0 mg/kg/injection, schedule: Q01DX005 (ip), vehicle: saline with Tween-80
  T/C: 104 % of control

## CNC(=O)Oc1ccc(Nc2ccccc2)cc1
[7]
  T/C: 105 % of control
[8]
  T/C: 99 % of control
dose: 240.0 mg/kg/injection, schedule: Q01DX005 (ip), vehicle: Klucel (hydroxypropylcellulose) (HPC)
  T/C: 97 % of control

## CC1(C)C(=O)C2=C(OC3([Se]2)C(=O)C(C)(C)C(=O)C(C)(C)C3=O)C(C)(C)C1=O
dose: 7.5 mg/kg/injection, schedule: Q01DX005 (ip), vehicle: Klucel (hydroxypropylcellulose) (HPC)
  T/C: 100 % of control
dose: 15.0 mg/kg/injection, schedule: Q01DX005 (ip), vehicle: Klucel (hydroxypropylcellulose) (HPC)
  T/C: 107 % of control
dose: 30.0 mg/kg/injection, schedule: Q01DX005 (ip), vehicle: Klucel (hydroxypropylcellulose) (HPC)
  T/C: 107 % of control
[7]
  T/C: 99 % of control
[8]
  T/C: 102 % of control

## O=C1NC(=O)C(F)[CH]([Ge](=[O])[O][Ge](=[O])[CH]2NC(=O)NC(=O)C2F)N1 (stereo not given)
dose: 30.0 mg/kg/injection, schedule: Q04DX002 (ip), vehicle: water
  T/C: 100 % of control
dose: 60.0 mg/kg/injection, schedule: Q04DX002 (ip), vehicle: water
  T/C: 97 % of control
dose: 100.0 mg/kg/injection, schedule: Q04DX002 (ip), vehicle: water
  T/C: 91 % of control
dose: 120.0 mg/kg/injection, schedule: Q04DX002 (ip), vehicle: water
  T/C: 100 % of control
dose: 200.0 mg/kg/injection, schedule: Q04DX002 (ip), vehicle: water
  T/C: 92 % of control
dose: 240.0 mg/kg/injection, schedule: Q04DX002 (ip), vehicle: water
  T/C: 100 % of control

## CCC[N+]12CC=C3COC(=O)C(C)(O)C(C)(O)C(C)C(=O)OC(CC1)C32 (stereo not given)
dose: 60.0 mg/kg/injection, schedule: Q01DX005 (ip), vehicle: saline
  T/C: 100 % of control
dose: 120.0 mg/kg/injection, schedule: Q01DX005 (ip), vehicle: saline
  T/C: 105 % of control
dose: 240.0 mg/kg/injection, schedule: Q01DX005 (ip), vehicle: saline
  T/C: 98 % of control

## O=S1(=O)CS/C(=N/C(=S)N(Cc2ccccc2)Cc2ccccc2)N1c1ccccc1
dose: 50.0 mg/kg/injection, schedule: Q04DX003 (ip), vehicle: saline with Tween-80
  T/C: 89 % of control
dose: 100.0 mg/kg/injection, schedule: Q04DX003 (ip), vehicle: saline with Tween-80
  T/C: 104 % of control
dose: 200.0 mg/kg/injection, schedule: Q04DX003 (ip), vehicle: saline with Tween-80
  T/C: 111 % of control

## CCC1(C)N=C(N)Nc2nc3cc(C)c(C)cc3n21 (stereo not given)
[1]
  T/C: 92 % of control
[2]
  T/C: 91 % of control
[3]
  T/C: 92 % of control and 94 % of control

## CCN(CC)CCCC(C)Nc1cc(C)nc2cc(N(C)C)ccc12 (stereo not given)
dose: 6.25 mg/kg/injection, schedule: Q01DX009 (ip), vehicle: Klucel (hydroxypropylcellulose) (HPC)
  T/C: 99 % of control
dose: 12.5 mg/kg/injection, schedule: Q01DX009 (ip), vehicle: Klucel (hydroxypropylcellulose) (HPC)
  T/C: 101 % of control
dose: 25.0 mg/kg/injection, schedule: Q01DX009 (ip), vehicle: Klucel (hydroxypropylcellulose) (HPC)
  T/C: 109 % of control

## Oc1ccc(C2c3ccccc3Oc3ccccc32)c2cccnc12
[4]
  T/C: 89 % of control
[5]
  T/C: 89 % of control
[6]
  T/C: 86 % of control
